Patent publication US20090191173A1, “Induction Of Neurogenesis And Stem Cell Therapy In Combination With Copolymer 1” (priority 2004, published 2009)

Assays:
[1] = system: APP/PS1 Tg mice; assay: Hippocampal immunohistochemistry in APP/PS1 Tg mice (Aβ plaques, microglia, NeuN, BrdU, DCX); assay type: in vivo, mouse
Description: (xxii) Glatiramer acetate vaccination. Each mouse was subcutaneously injected five times with a total of 100 μg of glatiramer acetate (GA (TV-5010), MW 13.5-18.5 kDa, average 16 kDa, Teva Pharmaceutical Industries Ltd., Petach Tikva, Israel), emulsified in 200 μl PBS×1, from experimental day 0 until day 24, twice during the first week and once a week thereafter.
(xxiv) Administration of BrdU and tissue preparation. BrdU was dissolved by sonication in PBS and injected i.p. into each mouse (50 mg/kg body weight; 1.25 mg BrdU in 200 μl PBS×1). Starting from experimental day 22 after the first GA vaccination, BrdU was injected i.p. twice daily, every 12 h for 2.5 days, to label proliferating cells. Three weeks after the first BrdU injection the mice were deeply anesthetized and perfused transcardially, first with PBS and then with 4% paraformaldehyde. The whole brain was removed, postfixed overnight, and then equilibrated in phosphate-buffered 30% sucrose. Free-floating 30-μm sections were collected on a freezing microtome (Leica SM2000R) and stored at 4° C. prior to immunohistochemistry.
For immunohistochemistry, tissue sections were treated with a permeabilization/blocking solution containing 10% FCS, 2% bovine serum albumin, 1% glycine, and 0.05% Triton X-100 (Sigma-Aldrich, St. Louis). Tissue sections were stained overnight at 4° C. with specified combinations of the following primary antibodies: rat anti-BrdU (1:200; Oxford Biotechnology, Kidlington, Oxfordshire, UK), goat anti-DCX [doublecortin] (1:400; Santa Cruz Biotechnology), and mouse anti-NeuN [neuronal nuclear protein] (1:200; Chemicon, Temecula, Calif.). Secondary antibodies were FITC-conjugated donkey anti-goat, Cy-3-conjugated donkey anti-mouse, and Cy-3- or Cy-5-conjugated donkey anti-rat (1:200; Jackson ImmunoResearch, West Grove, Pa.). For labeling of microglia we used either CD11b (MAC1; 1:50; BD-Pharmingen) or FITC-conjugated Bandeiraea simplicifolia isolectin B4 (IB4, 1:50; Sigma-Aldrich, Rehovot). To detect expression of cell-surface MHC-II proteins we used anti-MHC-II Abs (rat, clone IBL-5/22; 1:50; Chemicon, Temecula, Calif.). To detect expression of human Aβ we used anti-Aβ (human amino-acid residues 1-17) (mouse, clone 6E10, Chemicon, Temecula, Calif.). Expression of IGF-I was detected by goat anti-IGF-I Abs (1:20; R&D Systems). Expression of TNF-α was detected by goat anti-TNF-α Abs (1:100; R&D Systems). T cells were detected with anti-CD3 polyclonal Abs (rabbit, 1:100; DakoCytomation, Calif.). Propidium iodide (1 μg/ml; Molecular Probes, Invitrogen, Carlsbad, Calif.) was used for nuclear staining.
For in-vivo experiments, the number of Aβ^+ plaques and CD11b^+/IB-4^+ microglia in the hippocampus were counted at 300-μm intervals from 6-8 coronal sections (30 μm) from each mouse. Neurogenesis in the DG was evaluated by counting of premature neurons (DCX^+), proliferating cells (BrdU^+), and newly formed mature neurons (BrdU^+/NeuN^+) in six coronal sections (30 μm) from each mouse. Specificity of BrdU^+/NeuN^+ co-expression was assayed using the confocal microscope (LSM 510) in optical sections at 1-μm intervals/. Cell counts, numbers of Aβ^+ plaques, plaque areas, and intensity of NeuN staining per unit area in the DG were evaluated automatically using Image-Pro Plus 4.5 software (Media Cybernetics).

[2] = system: EAE mice
Description: GA treatment was applied by 5-8 consecutive daily subcutaneous injections (2 mg/mouse) in different stages of disease [i.e., (1) starting immediately after EAE induction (prevention treatment), (2) starting after appearance of disease manifestations at day 20 (suppression treatment), or (3) starting during the chronic phase 45 days after induction (delayed suppression).
(xl) Perfusion. Animals were deeply anesthetized with Nembutal and perfused transcardially with 2.5% paraformaldehyde. Brains were removed, postfixed in 1% paraformaldehyde and cryoprotected with 15% sucrose solution in PBS. Free-floating sections (16 μm thick) were cut coronally or sagitaly with a sliding microtome (Leica SM 2000r) through the entire brain and collected serially in PBS.
(xli) Immunohistochemistry. To detect BrdU-incorporated cells, sections were denatured in 2M HCl in PBS at 37° C. for 30 min and then neutralized with 0.1M borate buffer (pH 8.5) for 10 min at room temperature. To detect specific cell types, sections were pre-incubated in PBS solution containing 20% serum and 0.5% Triton-X-100 for 1 h, and then incubated overnight at room temperature with primary antibodies. The following primary antibodies were used: goat anti-doublecortin (DCX) C-18 (1:200, Santa Cruz Biotechnology, Santa Cruz, Calif.), mouse anti-NeuN (1:300, Chemicon, Temecula, Calif.), mouse anti-GFAP (1:100, Pharmingen, San Jose, Calif.), rabbit anti-phospho-histone (1:200, Upstate Biotechnology, Charlottesville, Va.), rat anti-BrdU (1:200, Harlan, Indianapolis, Ind.), rat anti-CD11b (1:50, Pharmingen) and chicken anti-BDNF (1:50, Promega, Madison, Wis.). […]
(xlii) Microscopy. Stained sections were examined and photographed by a confocal microscope (Axiovert 100M; Zeiss, Oberkochen, Germany), or by a fluorescence microscope (E600; Nikon, Tokyo, Japan), equipped with Plan Fluor objectives connected to CCD camera (DMX1200F, Nikon). Digital images were collected and analyzed using Image Pro+software. […]

[3] = system: APP/PS1 Tg mice; assay: Morris water maze (MWM) in APP/PS1 double-transgenic AD mice; assay type: in vivo, mouse; conditions: GA (TV-5010) s.c. vaccination, tested five weeks after first injection
[4] = system: EAE mice; assay: Clinical manifestations of MOG 35-55-induced EAE; assay type: in vivo; conditions: 5-8 daily s.c. injections 2 mg/mouse; prevention, suppression or delayed suppression
[5] = system: EAE mice; assay: Proliferation, migration and differentiation of neuronal progenitor cells in EAE mice (BrdU, DCX, NeuN); assay type: in vivo, mouse
Description: (xxxix) BrdU. 5-Bromo-2′-deoxyuridine (BrdU, Sigma), a thymidine analog incorporating into the DNA of dividing cells, was injected intraperitoneally (50 mg/kg), either concurrently with GA treatment (once each day), or immediately after completion of GA injections (twice each day).
(xli) Immunohistochemistry. […] Control slides were incubated with secondary antibody alone.
(xliii) Quantification. […] Quantification was performed in coronal sections, in the SVZ starting at the level of the medial septum and 640 μm backward, and in the hippocampal DG (in both blades for BrdU/DCX or in the upper blade for DCX) through its septotemporal axis. Quantification in the RMS was done on sagital sections starting at 1 mm from the median line of the brain and 640 μm laterally. The Results for each brain structure were averaged from 8 unilateral levels per mouse (80 μm apart, 3-4 mice in each treatment group) and are expressed as change fold from naive controls. Quantification of BrdU/NeuN double positive cells in the cortex was performed in areas of 0.15 mm^2, selected at random (10 sections counted/mouse, 3 mice in each treatment group).
(xliv) Statistical analysis. For BrdU and DCX analysis, the mean±SEM (averaged from 8 unilateral levels per mouse, 3-4 mice in each treatment group) was subjected to one-way analysis of variance (ANOVA), followed by Fishers' least significant difference (LSD) at comparison-wise error rate of 0.05, where appropriate. Since control values for BrdU incorporation were reduced as a function of time, results were expressed as change fold from naive controls injected concurrently with BrdU. The number of BrdU/NeuN double-positive cells in the cortex was averaged from 10 sections per mouse (3 mice in each treatment group) and expressed as cells per mm^3.

[6] = GA vaccinated vs untreated Tg mice
[7] = EAE+GA mice, one month after completion of GA treatment

glatiramer acetate [GA]
number of Aβ plaques ([1]; GA (TV-5010) vaccinated vs untreated Tg mice, 6 weeks later): significantly fewer plaques | BrdU+ cells in the dentate gyrus [1, 6]: significantly more BrdU^+ cells | CD11b+ microglia [1, 6]: significantly fewer CD11b^+ microglia | area occupied by the plaques [1, 6]: significantly smaller | staining for NeuN [1, 6]: significantly more intense staining for NeuN | MHC-II expression by microglia ([1]; GA-vaccinated Tg mice): most of the microglia adjacent to residual Aβ^+ plaques expressed MHC-II | DCX+ cells in the DG ([1]; relative to non-Tg littermates): slightly but significantly more | MAC-1 expression (microglial activation) ([2]; EAE+GA vs EAE mice): significantly reduced | neuronal damage in brain ([2]; EAE+GA vs EAE mice, prevention or suppression treatment): considerably less damage | neuronal malformations or perivascular infiltrations ([2]; mouse, in vivo): did not find neuronal malformations or perivascular infiltrations | MWM performance (spatial learning/memory) [3]: superior to that of the untreated Tg mice | clinical manifestations of EAE [4]: ameliorated the clinical manifestations of EAE regardless of the stage in which it was administered | migration of neuronal progenitors outside the RMS ([5]; EAE mice treated with GA): migration into a region corresponding to the lateral cortical stream (LCS) | neuronal proliferation in the hippocampus (BrdU incorporation, DCX expression) ([5]; EAE+GA mice): increased proliferation | BDNF expression by migrating DCX+ cells ([5]; EAE+GA mice, nucleus accumbens and hippocampus): manifested extensive expression of BDNF | BrdU+/NeuN+ cells as share of all NeuN+ cells in the cortex [5, 7]: 1.3% | BrdU+/NeuN+ double-labeled cells in the cortex [5, 7]: 128±46 /mm^3 | progenitors migrating to lesions ([5]; EAE+GA vs EAE mice): much higher | neuronal proliferation in the SVZ ([5]; EAE+GA vs untreated EAE mice and controls): augmented neuronal proliferation in the SVZ | BrdU or DCX expression in SVZ and DG ([5]; GA injection to naive mice (without EAE)): did not result in significant elevation | BrdU expression in the RMS, increase over EAE mice ([5]; GA on days 20-25 (suppression)): 2.2 fold | BrdU expression in the RMS, increase over control ([5]; GA on days 20-25 (suppression)): 7.8 fold | DCX expression in the RMS, increase over EAE mice ([5]; GA on days 20-25 (suppression)): 1.6 fold | DCX expression in the RMS, increase over control ([5]; GA on days 20-25 (suppression)): 2.6 fold | mobilization of progenitors into the RMS ([5]; injection of GA alone (no EAE)): enhanced mobilization of progenitors into the RMS, but to a lower extent | increase of new neurons in the cortex over EAE mice ([5]; one month after completion of GA treatment): 2.6 fold | DCX expression in the SVZ, elevation over EAE and control ([5]; prevention treatment): 4 fold
